Among the data in the supplement of paper PMC10307832 are relative viability values, retold here.

Test in all cases: relative viability (nuclei count vs DMSO), 5 days (fraction); higher = more cells survive
Compound in the assay “BMX-IN-1 + Navitoclax”: C=CC(=O)Nc1cc(-n2c(=O)ccc3cnc4ccc(-c5ccc(NS(C)(=O)=O)cc5)cc4c32)ccc1C [BMX-IN-1] + CC1(C)CCC(c2ccc(Cl)cc2)=C(CN2CCN(c3ccc(C(=O)NS(=O)(=O)c4ccc(N[C@H](CCN5CCOCC5)CSc5ccccc5)c(S(=O)(=O)C(F)(F)F)c4)cc3)CC2)C1 [Navitoclax] (partner 0.5 µM)
The gist of the method: (§1)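 Nuclei were stained with Hoechst during a one-step fixation (final 0.05% Triton X-100, 1% formaldehyde, 1 ug/ml Hoechst) carried out 5 days after dosing, then counted on 4× images. The cells, lung cancer lines in 1536-well plates, had been dosed by pin tool the day after seeding with one drug alone or a fixed anchor-drug dose plus five library-drug doses (not always all listed) in √10 steps. Relative viability is the nuclei count in treated wells divided by that in vehicle wells, and each value is the median of duplicate plates.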

Compound in the assay “Ibrutinib + Dasatinib”: C=CC(=O)N1CCC[C@@H](n2nc(-c3ccc(Oc4ccccc4)cc3)c3c(N)ncnc32)C1 [Ibrutinib] + Cc1nc(Nc2ncc(C(=O)Nc3c(C)cccc3Cl)s2)cc(N2CCN(CCO)CC2)n1 [Dasatinib] (partner 0.075 µM)
An outline of the steps:
as §1

Compound in the assay “BMX-IN-1 + Palbociclib”: C=CC(=O)Nc1cc(-n2c(=O)ccc3cnc4ccc(-c5ccc(NS(C)(=O)=O)cc5)cc4c32)ccc1C [BMX-IN-1] + CC(=O)c1c(C)c2cnc(Nc3ccc(N4CCNCC4)cn3)nc2n(C2CCCC2)c1=O [Palbociclib] (partner 0.5 µM)
The gist of the method:
as §1

Compound in the assay “BMX-IN-1 + Pemetrexed”: C=CC(=O)Nc1cc(-n2c(=O)ccc3cnc4ccc(-c5ccc(NS(C)(=O)=O)cc5)cc4c32)ccc1C [BMX-IN-1] + Nc1nc2[nH]cc(CCc3ccc(C(=O)N[C@@H](CCC(=O)O)C(=O)O)cc3)c2c(=O)[nH]1 [Pemetrexed] (partner 0.2 µM)
An outline of the steps:
as §1

Turning to NCI-H520, the relative viability turned out to be 1.35 with BMX-IN-1 + Navitoclax (first compound 0.02 µM); 1.4 with BMX-IN-1 + Navitoclax (first compound 0.2 µM); 1.16 with BMX-IN-1 + Navitoclax (first compound 0.6325 µM); 1.03 in the assay with BMX-IN-1 + Navitoclax (first compound 2 µM); 0.192 with Ibrutinib + Dasatinib (first compound 0.005 µM); 0.183 with Ibrutinib + Dasatinib (first compound 0.05 µM). For the same cell line, the relative viability with Ibrutinib + Dasatinib (first compound 0.1581 µM) was 0.237; with Ibrutinib + Dasatinib (first compound 0.5 µM), 0.132; with BMX-IN-1 + Palbociclib (first compound 0.02 µM) it was 0.254; with BMX-IN-1 + Palbociclib (first compound 0.2 µM), 0.218; with BMX-IN-1 + Palbociclib (first compound 0.6325 µM) it was 0.218; in the assay with BMX-IN-1 + Palbociclib (first compound 2 µM), 0.219. Besides, the relative viability turned out to be 0.762 with BMX-IN-1 + Pemetrexed (first compound 0.02 µM), 0.853 with BMX-IN-1 + Pemetrexed (first compound 0.2 µM), 0.686 with BMX-IN-1 + Pemetrexed (first compound 0.6325 µM) and 0.762 with BMX-IN-1 + Pemetrexed (first compound 2 µM).

Regarding SK-LU-1, the relative viability in the assay with BMX-IN-1 + Navitoclax (first compound 0.02 µM) stood at 1; with BMX-IN-1 + Navitoclax (first compound 0.2 µM), 0.69; with BMX-IN-1 + Navitoclax (first compound 0.6325 µM), 0.789; in the assay with BMX-IN-1 + Navitoclax (first compound 2 µM), 1.02; with Ibrutinib + Dasatinib (first compound 0.005 µM) it was 0.179; in the assay with Ibrutinib + Dasatinib (first compound 0.01581 µM) it was 0.162. For the same cell line, the relative viability is 0.17 with Ibrutinib + Dasatinib (first compound 0.05 µM); 0.183 with Ibrutinib + Dasatinib (first compound 0.1581 µM); 0.162 in the assay with Ibrutinib + Dasatinib (first compound 0.5 µM); 0.323 in the assay with BMX-IN-1 + Palbociclib (first compound 0.02 µM); 0.399 with BMX-IN-1 + Palbociclib (first compound 0.2 µM); 0.385 with BMX-IN-1 + Palbociclib (first compound 0.6325 µM). Moreover, the relative viability came out at 0.335 with BMX-IN-1 + Palbociclib (first compound 2 µM); 1.13 in the assay with BMX-IN-1 + Pemetrexed (first compound 0.02 µM); 1.27 with BMX-IN-1 + Pemetrexed (first compound 0.2 µM); 0.962 with BMX-IN-1 + Pemetrexed (first compound 0.6325 µM); 0.95 with BMX-IN-1 + Pemetrexed (first compound 2 µM).

For the cell line NCI-H2087, the relative viability in the assay with BMX-IN-1 + Navitoclax (first compound 0.02 µM) is 1.03; with BMX-IN-1 + Navitoclax (first compound 0.2 µM), 1.18; with BMX-IN-1 + Navitoclax (first compound 0.6325 µM), 1.01; with BMX-IN-1 + Navitoclax (first compound 2 µM) it was 1.08; with Ibrutinib + Dasatinib (first compound 0.005 µM) it was 1.11; in the assay with Ibrutinib + Dasatinib (first compound 0.01581 µM), 0.91. Also, the relative viability with Ibrutinib + Dasatinib (first compound 0.05 µM) was found to be 1.01; in the assay with Ibrutinib + Dasatinib (first compound 0.5 µM), 0.951; with BMX-IN-1 + Palbociclib (first compound 0.02 µM) it was 0.214; with BMX-IN-1 + Palbociclib (first compound 0.2 µM), 0.229; in the assay with BMX-IN-1 + Palbociclib (first compound 0.6325 µM), 0.252; in the assay with BMX-IN-1 + Palbociclib (first compound 2 µM), 0.257. The relative viability with BMX-IN-1 + Pemetrexed (first compound 0.02 µM) was determined as 0.725; with BMX-IN-1 + Pemetrexed (first compound 0.2 µM), 0.715; with BMX-IN-1 + Pemetrexed (first compound 0.6325 µM) it was 0.669; in the assay with BMX-IN-1 + Pemetrexed (first compound 2 µM), 0.625.

Consider COR-L 105, for which the relative viability with BMX-IN-1 + Navitoclax (first compound 0.02 µM) was 0.756; in the assay with BMX-IN-1 + Navitoclax (first compound 0.2 µM) it was 0.779; with BMX-IN-1 + Navitoclax (first compound 0.6325 µM) it was 0.875; with BMX-IN-1 + Navitoclax (first compound 2 µM), 0.709; with Ibrutinib + Dasatinib (first compound 0.005 µM), 0.258; with Ibrutinib + Dasatinib (first compound 0.01581 µM), 0.369. Further, the relative viability with Ibrutinib + Dasatinib (first compound 0.05 µM) turned out to be 0.229; in the assay with Ibrutinib + Dasatinib (first compound 0.1581 µM), 0.322; with Ibrutinib + Dasatinib (first compound 0.5 µM) it was 0.162; with BMX-IN-1 + Palbociclib (first compound 0.02 µM), 0.449; with BMX-IN-1 + Palbociclib (first compound 0.2 µM) it was 0.442; with BMX-IN-1 + Palbociclib (first compound 0.6325 µM), 0.447. Besides, the relative viability with BMX-IN-1 + Palbociclib (first compound 2 µM) was determined as 0.39; with BMX-IN-1 + Pemetrexed (first compound 0.02 µM) it was 1.2; with BMX-IN-1 + Pemetrexed (first compound 0.2 µM), 1.07; with BMX-IN-1 + Pemetrexed (first compound 0.6325 µM), 1.3; in the assay with BMX-IN-1 + Pemetrexed (first compound 2 µM) it was 1.04.

For the cell line NCI-H1395, the relative viability in the assay with BMX-IN-1 + Navitoclax (first compound 0.02 µM) is 0.972; with BMX-IN-1 + Navitoclax (first compound 0.2 µM), 1.09; in the assay with BMX-IN-1 + Navitoclax (first compound 0.6325 µM) it was 1.07; with BMX-IN-1 + Navitoclax (first compound 2 µM), 1.14; with Ibrutinib + Dasatinib (first compound 0.005 µM), 0.419; with Ibrutinib + Dasatinib (first compound 0.01581 µM) it was 0.401. Besides, the relative viability worked out at 0.383 with Ibrutinib + Dasatinib (first compound 0.05 µM); 0.392 with Ibrutinib + Dasatinib (first compound 0.1581 µM); 0.417 with Ibrutinib + Dasatinib (first compound 0.5 µM); 0.702 with BMX-IN-1 + Palbociclib (first compound 0.02 µM); 0.62 with BMX-IN-1 + Palbociclib (first compound 0.2 µM); 0.572 with BMX-IN-1 + Palbociclib (first compound 0.6325 µM). For the same cell line, the relative viability with BMX-IN-1 + Palbociclib (first compound 2 µM) was found to be 0.588; with BMX-IN-1 + Pemetrexed (first compound 0.02 µM), 0.877; with BMX-IN-1 + Pemetrexed (first compound 0.2 µM) it was 0.976; with BMX-IN-1 + Pemetrexed (first compound 0.6325 µM), 0.722; with BMX-IN-1 + Pemetrexed (first compound 2 µM), 0.756.

Take EKVX: the relative viability in the assay with BMX-IN-1 + Navitoclax (first compound 0.02 µM) is 0.979; with BMX-IN-1 + Navitoclax (first compound 0.2 µM) it was 1.13; in the assay with BMX-IN-1 + Navitoclax (first compound 0.6325 µM), 0.966; in the assay with BMX-IN-1 + Navitoclax (first compound 2 µM) it was 1; with Ibrutinib + Dasatinib (first compound 0.005 µM), 0.525; with Ibrutinib + Dasatinib (first compound 0.01581 µM), 0.455. Further, the relative viability with Ibrutinib + Dasatinib (first compound 0.05 µM) was determined as 0.481; in the assay with Ibrutinib + Dasatinib (first compound 0.1581 µM) it was 0.489; in the assay with Ibrutinib + Dasatinib (first compound 0.5 µM) it was 0.352; with BMX-IN-1 + Palbociclib (first compound 0.02 µM) it was 0.424; with BMX-IN-1 + Palbociclib (first compound 0.2 µM), 0.37; with BMX-IN-1 + Palbociclib (first compound 0.6325 µM) it was 0.773. Besides, the relative viability was 0.416 with BMX-IN-1 + Palbociclib (first compound 2 µM); 0.56 in the assay with BMX-IN-1 + Pemetrexed (first compound 0.02 µM); 0.448 in the assay with BMX-IN-1 + Pemetrexed (first compound 0.2 µM); 0.464 with BMX-IN-1 + Pemetrexed (first compound 0.6325 µM); 0.452 with BMX-IN-1 + Pemetrexed (first compound 2 µM).

On to NCI-H23, for which the relative viability in the assay with BMX-IN-1 + Navitoclax (first compound 0.02 µM) is 0.979; with BMX-IN-1 + Navitoclax (first compound 0.2 µM), 0.85; with BMX-IN-1 + Navitoclax (first compound 0.6325 µM) it was 0.858; with BMX-IN-1 + Navitoclax (first compound 2 µM) it was 0.738; with Ibrutinib + Dasatinib (first compound 0.005 µM), 0.705; with Ibrutinib + Dasatinib (first compound 0.01581 µM), 0.762. Further, the relative viability in the assay with Ibrutinib + Dasatinib (first compound 0.05 µM) amounted to 0.902; with Ibrutinib + Dasatinib (first compound 0.1581 µM) it was 0.662; with Ibrutinib + Dasatinib (first compound 0.5 µM), 0.901; with BMX-IN-1 + Palbociclib (first compound 0.02 µM), 0.536; with BMX-IN-1 + Palbociclib (first compound 0.2 µM) it was 0.526; with BMX-IN-1 + Palbociclib (first compound 0.6325 µM), 0.555. Also, the relative viability with BMX-IN-1 + Palbociclib (first compound 2 µM) was determined as 0.47; in the assay with BMX-IN-1 + Pemetrexed (first compound 0.02 µM), 0.693; in the assay with BMX-IN-1 + Pemetrexed (first compound 0.2 µM), 1.04; in the assay with BMX-IN-1 + Pemetrexed (first compound 0.6325 µM), 0.797; with BMX-IN-1 + Pemetrexed (first compound 2 µM) it was 0.622.

As to NCI-H1792, the relative viability in the assay with BMX-IN-1 + Navitoclax (first compound 0.02 µM) came out at 0.559; in the assay with BMX-IN-1 + Navitoclax (first compound 0.2 µM), 0.632; in the assay with BMX-IN-1 + Navitoclax (first compound 0.6325 µM), 0.49; with BMX-IN-1 + Navitoclax (first compound 2 µM), 0.724; in the assay with Ibrutinib + Dasatinib (first compound 0.01581 µM), 0.759; with Ibrutinib + Dasatinib (first compound 0.05 µM), 0.755. Further, the relative viability came out at 0.685 with Ibrutinib + Dasatinib (first compound 0.5 µM); 0.64 with BMX-IN-1 + Palbociclib (first compound 0.2 µM); 1.26 with BMX-IN-1 + Palbociclib (first compound 0.6325 µM); 0.613 in the assay with BMX-IN-1 + Palbociclib (first compound 2 µM); 0.903 with BMX-IN-1 + Pemetrexed (first compound 0.02 µM); 1.28 with BMX-IN-1 + Pemetrexed (first compound 0.2 µM). Besides, the values for the relative viability with BMX-IN-1 + Pemetrexed (first compound 0.6325 µM) and with BMX-IN-1 + Pemetrexed (first compound 2 µM) were 0.885 and 1.17, respectively.

Turning to NCI-H3122, the relative viability stood at 1.1 with BMX-IN-1 + Navitoclax (first compound 0.02 µM); 1.06 with BMX-IN-1 + Navitoclax (first compound 0.2 µM); 1.02 with BMX-IN-1 + Navitoclax (first compound 0.6325 µM); 1.05 with BMX-IN-1 + Navitoclax (first compound 2 µM); 0.816 with Ibrutinib + Dasatinib (first compound 0.005 µM); 0.841 with Ibrutinib + Dasatinib (first compound 0.01581 µM). Besides, the relative viability with Ibrutinib + Dasatinib (first compound 0.05 µM) was found to be 0.699; with Ibrutinib + Dasatinib (first compound 0.1581 µM), 0.676; in the assay with Ibrutinib + Dasatinib (first compound 0.5 µM), 0.771; with BMX-IN-1 + Palbociclib (first compound 0.02 µM) it was 0.193; in the assay with BMX-IN-1 + Palbociclib (first compound 0.2 µM) it was 0.204; with BMX-IN-1 + Palbociclib (first compound 0.6325 µM) it was 0.174. For the same cell line, the relative viability stood at 0.164 with BMX-IN-1 + Palbociclib (first compound 2 µM); 0.203 with BMX-IN-1 + Pemetrexed (first compound 0.02 µM); 0.206 with BMX-IN-1 + Pemetrexed (first compound 0.2 µM); 0.19 with BMX-IN-1 + Pemetrexed (first compound 0.6325 µM); 0.19 with BMX-IN-1 + Pemetrexed (first compound 2 µM).
